Experimental data from ChEMBL document CHEMBL1159154, “Synthesis of new potent leukotriene B4 antagonists and their biological properties. 2” (Bioorg Med Chem Lett, 1994).
The source made the active and inactive calls. The rule behind the calls is not given here.

Columns and labels:
Homo sapiens = organism: Homo sapiens; experiment: Concentration required for inhibitory activity against human PMNLs chemotaxis; format: functional, organism-based; settings: PMNL
[1] = Partition coefficient in n-octanol/phosphate buffer, at pH 7.4; format: physicochemical
Cavia porcellus [2] = experiment: In vivo inhibitory activity against LTB4-induced bronchoconstriction of guinea pig at dose of 40 mg/kg after 60 min of po administration; Active; format: functional, organism-based; design: dose 40 mg/kg
Cavia porcellus [3] = experiment: In vivo inhibitory activity against LTB4-induced bronchoconstriction of guinea pig at dose of 5 mg/kg after 10 min of iv administration; Active; format: functional, organism-based; design: dose 5 mg/kg
Cavia porcellus [4] = experiment: In vivo inhibitory activity against LTB4-induced bronchoconstriction of guinea pig at dose of 5 mg/kg after 2 min of iv administration; Active; format: functional, organism-based; design: dose 5 mg/kg
Cavia porcellus [5] = experiment: In vivo inhibitory activity against LTB4-induced bronchoconstriction of guinea pig at dose of 5 mg/kg after 30 min of iv administration; Active; format: functional, organism-based; design: dose 5 mg/kg
Cavia porcellus [6] = experiment: In vivo inhibitory activity against LTB4-induced bronchoconstriction of guinea pig at dose of 5 mg/kg after 10 min of iv administration; relatively active; format: functional, organism-based; design: dose 5 mg/kg
Cavia porcellus [7] = experiment: In vivo inhibitory activity against LTB4-induced bronchoconstriction of guinea pig at dose of 5 mg/kg after 2 min of iv administration; relatively active; format: functional, organism-based; design: dose 5 mg/kg
Cavia porcellus [8] = experiment: In vivo inhibitory activity against LTB4-induced bronchoconstriction of guinea pig at dose of 40 mg/kg after 60 min of po administration; relatively active; format: functional, organism-based; design: dose 40 mg/kg

Row | SMILES | IC50 (Homo sapiens) [nM] | logD [1] | Activity (Cavia porcellus [4]) | further results
1 | CCc1cc(C(C)=O)c(O)cc1OCc1cccc(C(=O)Nc2nc(CC(=O)O)cs2)c1 | 5000 | – | – | –
2 | CCc1cc(C(C)=O)c(O)cc1OCc1cccc(C(=O)N(CC)CCC(=O)O)n1 | 300 | 0.1 | Active | Activity (Cavia porcellus [2]): Active; Activity (Cavia porcellus [3]): Active; Activity (Cavia porcellus [5]): Active
3 | CCc1cc(C(C)=O)c(O)cc1OCc1cccc(C(=O)N(CC)CCO)n1 | 1000 | 2.8 | Active | –
4 | CCc1cc(C(C)=O)c(O)cc1OCc1cccc(C(=O)N[C@@H](CC(=O)O)C(=O)O)n1 | 900 | -1.8 | – | Activity (Cavia porcellus [6]): Weak activity; Activity (Cavia porcellus [7]): Weak activity
5 | CCc1cc(C(C)=O)c(O)cc1OCc1cccc(C(=O)Nc2nc(CC(=O)O)cs2)n1 | 300 | 1.9 | – | Activity (Cavia porcellus [6]): Weak activity
6 | CCc1cc(C(C)=O)c(O)cc1OCc1cccc(C(=O)Nc2cccc(CC(=O)O)[n+]2[O-])n1 | 20 | 0.8 | Active | Activity (Cavia porcellus [3]): Active; Activity (Cavia porcellus [5]): Active
7 | CCc1cc(C(C)=O)c(O)cc1OCc1cccc(C(=O)NCC(=O)O)n1 | 12000 | – | – | –
8 | CCc1cc(C(C)=O)c(O)cc1OCc1ccc(C(=O)Nc2nc(CC(=O)O)cs2)cn1 | 700 | – | – | –
9 | CCc1cc(C(C)=O)c(O)cc1OCc1cccc(C(=O)Nc2cccc(CC(=O)O)n2)n1 | 800 | 1.1 | – | –
10 | CCc1cc(C(C)=O)c(O)cc1OCc1cccc(C(=O)NCCC(=O)O)n1 | 1000 | 0.7 | Active | Activity (Cavia porcellus [3]): Active
11 | CCc1cc(C(C)=O)c(O)cc1OCc1cccc(C(=O)N[C@@H](CO)C(=O)O)n1 | 300 | -0.3 | Active | Activity (Cavia porcellus [8]): Weak activity; Activity (Cavia porcellus [3]): Active; Activity (Cavia porcellus [5]): Active
12 | CCc1cc(C(C)=O)c(O)cc1OCc1cncc(C(=O)Nc2nc(CC(=O)O)cs2)n1 | 10000 | 0.6 | Active | Activity (Cavia porcellus [6]): Weak activity
13 | CCc1cc(C(C)=O)c(O)cc1OCc1cccc(C(=O)NCCO)n1 | 15000 | – | – | –
14 | CCc1cc(C(C)=O)c(O)cc1OCc1nccc(C(=O)Nc2nc(CC(=O)O)cs2)n1 | 3000 | – | – | –
15 | CCCc1c(OCCCOc2ccc(C(C)=O)c(OC)c2CCC)ccc2c1OC(C(=O)O)CC2 (stereo not drawn) [SC-41390] | 3300 | – | – | –
